Assays:
TNFα = TNFα ELISA of LPS-stimulated bone marrow-derived macrophages; format: cell-based, mouse; conditions: BMDMs, 50 μM, LPS 100 ng/ml, 24 hours
Method: Multiple Sclerosis: Mechanisms and Immunotherapy. Neuron 97, 742-768 (2018)]. It was tested whether the sugar analogs could affect the activity of macrophages, using bone marrow-derived macrophages (BMDMs) stimulated with lipopolysaccharide (LPS, 100 ng/ml). The sugar analogs were added at 50 μM prior to LPS, and the conditioned medium was collected after 24 hours and assayed for levels of the secreted cytokine TNFα. […] Testing Toxicity of Sugar Analogs
Femurs were carefully removed from euthanized female C57BI/6 mice, and marrow was flushed into a culture plate with cold complete bone marrow growth medium (DMEM, 10% fetal bovine serum, and the supplements 1% penicillin/streptomycin, 1% glutamine, 1% non-essential amino acids, and 10% supernatant from L929 cell-line enriched in macrophage-colony stimulating factor). Cells were spun at 1100 rpm for 10 minutes, resuspended in fresh growth medium and plated at 10×10^6 cells/ml in a 10 cm culture dish. Cells were grown in DMEM with supplements and L929 supernatant for 5 days, then half the medium was replaced with fresh growth medium. On day 7 growth medium was replaced with DMEM with 10% FBS and supplements. Cells were used on day 8, and experiments were conducted in DMEM with 1% FBS and supplements unless otherwise specified.
BMDM were plated at 25,000 cells in 96-well plates in DMEM+L929 media. After 24 hours media was changed to DMEM+1% FBS. One hour later, cells were treated with […] compounds or PBS. After 1 hour LPS (final concentration 100 ng/ml) was added. Following 24 hours, conditioned media was harvested for TNFα ELISA (Thermo Scientific), which was performed according to manufacturer's instructions.

human neurons = assay: Human neuron ATP luminescence assay; format: cell-based; conditions: 100 μM
Method: If the sugar compounds are to be used in neurological disorders, they should not display toxicity to neural cells. Thus, human neurons were used to test the compounds, and the ATP luminescence assay as a readout of metabolic stress and a surrogate of toxicity. Compounds were tested at a high dose of 100 μM. […] Two compounds that reduced ATP production by more than 50% were the 4-fluorinated hemiacetals that respectively bear O3,O6-diacetates 10 (Ac-4-F-GlcNAcOH) and O3,O6-dipropanoates 11 (Pr-4-F-GlcNAcOH), with the former displaying higher cytotoxicity than the latter (FIG. 6d).
Human fetal neurons were plated at 10×10^4 cells/well in 96 well plates as previously described [Vecil, G. G. et al. Interleukin-1 is a key regulator of matrix metalloproteinase-9 expression in human neurons in culture and following mouse brain trauma in vivo. Journal of Neuroscience Research 61, 212-224 (2000)]. After 24 hours neurons were treated with 100 μM compounds and incubated for 24 hours. The ATP assay (CellTiter-Glo Luminescent Cell Viability Assay; Promega, Madison, WI, USA) was then performed to test for toxicity according to manufacturer's instructions.

splenocytes = assay: Splenocyte thymidine proliferation assay (anti-CD3/anti-CD28); format: cell-based, mouse; conditions: for splenocyte proliferation: 25 μM, 48 hours; for Reduce T cell proliferation: activated splenocytes, significance class
Method: It was assessed whether the glucosamine analogs have immunomodulatory properties on splenocytes isolated in culture. T cells within the splenocyte pool were polyclonally activated with anti-CD3 and anti-CD28 antibodies in the presence of compounds for 48 hours, and proliferation was determined by the uptake of tritiated thymidine and expressed as counts per minute. The relative change in proliferation of treated versus control splenocytes was taken in order to rank the compounds across multiple independent experiments (FIG. 8a).
The spleens were isolated from 8-10-week-old female C57BL/6 mice and homogenized. The cells were isolated by Ficoll gradient and spun for 30 min at 1,800 r.p.m. The cell suspension was removed and the cells were washed once with PBS. The cell pellet was subsequently re-suspended in Roswell Park Memorial Institute media containing 10% fetal bovine serum, 1% penicillin/streptomycin, 1% sodium pyruvate and 1% L-glutamine. Trypan blue exclusion was used to count live cells, and the cells were plated at 2.5×10^5 cells per well in a round-bottom 96-well plate and activated with 1,000 ng/ml plate-bound anti-CD3 and 1,000 ng/ml anti-CD28 suspended in media to preferentially activate T lymphocytes. Compounds were added at final concentrations of 25 μM. The cells were kept at 37° C. and 5% CO2 for 30 h, after which 10 μl/well (1 μCi per well) of 3H-thymidine was added for 18 h. The cells containing thymidine were harvested onto filter mats using a cell harvester and mats were allowed to dry for 24 h. The results were read by liquid scintillation counts.

Compound | TNFα production by LPS-stimulated macrophages (TNFα) | cytotoxicity on neurons (human neurons) | splenocyte proliferation (splenocytes) | Reduce T cell proliferation (splenocytes)
CC(=O)NC1C(O)OC(COC(C)=O)[C@@H](F)[C@@H]1OC(C)=O (mixture of isomers) [Compound 10] | enhanced TNFα levels | showed evidence of toxicity on neurons | – | –
CC(=O)NC1C(OC(C)=O)OC(COC(C)=O)C(F)(F)[C@@H]1OC(C)=O (mixture of isomers) [Compound 16, 2-Acetamido-1,3,6-tri-O-acetyl-2,4-dideoxy-4,4-difluoro-α/β-D-xylo-hexopyranose] | did not alter cytokine level of activated macrophages | no signs of toxicity in neurons | – | –
CC(=O)N[C@H]1[C@H](OC(C)=O)O[C@H](COC(C)=O)[C@@H](OC(C)=O)[C@@H]1OC(C)=O [Compound 1, reference compound] | – | – | reduced splenocyte proliferation | **** (****p < 0.0001)
CC(=O)NC1C(OC(C)=O)OC(COC(C)=O)[C@@H](F)C1OC(C)=O (some centres unmarked) [Compound 3, reference compound] | did not alter cytokine level of activated macrophages | – | – | **** (****p < 0.0001)
CCCC(=O)OC[C@H]1OC(O)[C@H](NC(C)=O)[C@@H](OC(=O)CCC)[C@@H]1F (stereo partly drawn) [Compound 12, 2-Acetamido-3,6-di-O-butanoyl-2,4-dideoxy-4-fluoro-α/β-3-D-glucopyranose] | – | showed no cytotoxicity | reduced splenocyte proliferation | ** (**p < 0.01)
